The supplement of paper PMC10307832

Tests used:
Experiment in all cases: relative viability (nuclei count vs DMSO), 5 days (fraction); higher = more cells survive
[1] = compound: CCc1c2c(nc3ccc(OC(=O)N4CCC(N5CCCCC5)CC4)cc13)-c1cc3c(c(=O)n1C2)COC(=O)[C@]3(O)CC [Irinotecan] + CS(=O)(=O)CCNCc1ccc(-c2ccc3ncnc(Nc4ccc(OCc5cccc(F)c5)c(Cl)c4)c3c2)o1 [Lapatinib] (partner 2 µM)
Outline: (§1)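 For relative viability, nuclei counts in treated wells were divided by those in vehicle wells. Lung cancer cell lines had been pin-tool dosed in 1536-well plates the day after seeding and cultured for 5 days, then fixed and stained in one step (final 0.05% Triton X-100, 1% formaldehyde, 1 ug/ml Hoechst) and imaged at 4×. Doses were one drug alone or a fixed anchor-drug dose plus five library-drug doses (not always all listed) in √10 steps, and values are duplicate-plate medians.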

[2] = compound: Cn1cc(-c2cnc3ccc4ccc(CS(=O)(=O)NCc5ccccn5)cc4c(=O)c3c2)cn1 [MK-8033] + C[C@]1(O)C[C@@H](c2nc(-c3ccc4ccc(-c5ccccc5)nc4c3)c3c(N)nccn32)C1 [Linsitinib] (partner 1 µM)
Outline: as §1

[3] = compound: CC[C@@H](C)CNCC(=O)N1CCC2=C([C@@H]1COC3=CC=CC(=C3)C)C=CS2 [RU-SKI 43] + CS(=O)(=O)N1CCN(Cc2cc3nc(-c4cccc5[nH]ncc45)nc(N4CCOCC4)c3s2)CC1 [Pictilisib] (partner 1 µM)
Outline: as §1

[4] = compound: Cn1cc(-c2cnc3ccc4ccc(CS(=O)(=O)NCc5ccccn5)cc4c(=O)c3c2)cn1 [MK-8033] + CC1(C)CCC(c2ccc(Cl)cc2)=C(CN2CCN(c3ccc(C(=O)NS(=O)(=O)c4ccc(N[C@H](CCN5CCOCC5)CSc5ccccc5)c(S(=O)(=O)C(F)(F)F)c4)cc3)CC2)C1 [Navitoclax] (partner 0.5 µM)
Outline: as §1

Cell Line | relative viability ([1]; first compound 0.6325 µM) | relative viability ([1]; first compound 2 µM) | relative viability ([1]; first compound 6.325 µM) | relative viability ([1]; first compound 20 µM) | relative viability ([2]; first compound 0.02 µM) | relative viability ([2]; first compound 0.06325 µM) | relative viability ([2]; first compound 0.2 µM) | relative viability ([2]; first compound 0.6325 µM) | relative viability ([2]; first compound 2 µM) | relative viability ([3]; first compound 0.1 µM) | relative viability ([3]; first compound 0.3162 µM) | relative viability ([3]; first compound 1 µM) | relative viability ([3]; first compound 3.162 µM) | relative viability ([3]; first compound 10 µM) | relative viability ([4]; first compound 0.02 µM) | relative viability ([4]; first compound 0.06325 µM) | relative viability ([4]; first compound 0.2 µM) | relative viability ([4]; first compound 0.6325 µM) | relative viability ([4]; first compound 2 µM)
NCI-H1734 | 0.883 | 0.588 | 0.186 | 0.191 | 0.904 | 0.769 | 0.852 | 0.93 | 0.858 | 0.467 | 0.585 | 0.459 | 0.454 | 0.431 | 0.811 | 0.818 | 0.763 | 0.878 | 0.837
NCI-H727 | 0.339 | 0.503 | 0.445 | 0.369 | 0.284 | 0.275 | 0.253 | 0.3 | 0.266 | 0.31 | 0.305 | 0.438 | 0.497 | 0.377 | 0.377 | 0.435 | 0.311 | 0.465 | 0.486
HOP-62 | 0.471 | 0.258 | 0.143 | 0.217 | 0.62 | 0.99 | 0.898 | 0.895 | 1.01 | 0.767 | 0.69 | 0.834 | 0.769 | 0.611 | 1.03 | 0.89 | 1.03 | 1.12 | 0.955
NCI-H2405 | – | 1.05 | 0.333 | 0.101 | 0.882 | 0.91 | 0.783 | 0.831 | 0.957 | 0.393 | 0.34 | 0.436 | 0.472 | 0.333 | 0.825 | 0.727 | 0.733 | 0.847 | 0.933
A-427 | – | 0.752 | 0.221 | 0.179 | 1.09 | 1.21 | 1.02 | 1.17 | 1.1 | 0.83 | 0.66 | 0.878 | – | 0.675 | 0.967 | 0.869 | 0.891 | 0.912 | 0.868
LCLC-97TM1 | 0.317 | 0.263 | 0.156 | 0.173 | 0.173 | 0.149 | 0.202 | 0.181 | 0.207 | 0.191 | – | 0.213 | 0.162 | 0.188 | 0.402 | 0.506 | 0.396 | 0.398 | 0.401
NCI-H3122 | 0.994 | 0.529 | 0.24 | 0.274 | 1.01 | 1.04 | 0.993 | 1.04 | 1.02 | 0.644 | 0.543 | 0.641 | 0.559 | 0.578 | 1.03 | 1 | 1.03 | 1.01 | 1.05
RERF-LC-KJ | 0.833 | 0.692 | 0.439 | 0.364 | 0.885 | 0.902 | 0.836 | 0.908 | 0.938 | 0.535 | 0.529 | 0.61 | 0.548 | 0.476 | 0.972 | 0.867 | 0.756 | 0.844 | 0.882
HCC-44 | 0.96 | 0.73 | 0.273 | 0.382 | 0.615 | 0.661 | 0.617 | 0.654 | 0.688 | 0.668 | 0.504 | 0.77 | 0.675 | 0.566 | 0.874 | 0.911 | 0.912 | 0.963 | 0.899
HCC-15 | 0.463 | 0.336 | 0.17 | 0.155 | 0.763 | 0.851 | 0.83 | 0.911 | 0.801 | 0.886 | 0.887 | 0.872 | 0.721 | 0.679 | 0.744 | 0.706 | 0.679 | 0.668 | 0.668
Calu-6 | 0.599 | 0.514 | 0.226 | 0.125 | 0.895 | 0.96 | 0.874 | 1.01 | 0.876 | 0.918 | 1.14 | 0.977 | 0.912 | 0.722 | 0.784 | 0.799 | 0.691 | 0.869 | 0.905
SK-LU-1 | 0.46 | 0.503 | 0.321 | 0.312 | 1.14 | 1.14 | 0.951 | 1.05 | 0.878 | 0.556 | 0.578 | 0.634 | 0.678 | 0.554 | 0.808 | 0.798 | 0.792 | 0.919 | 0.807
NCI-H1793 | – | 0.547 | 0.253 | 0.235 | 0.915 | – | 0.775 | 0.858 | 0.782 | 0.396 | 0.411 | 0.479 | 0.318 | 0.31 | 0.454 | – | 0.291 | 0.38 | 0.508
H3255 | 0.206 | 0.214 | 0.224 | 0.23 | 1.03 | 0.815 | 0.903 | 0.991 | 0.826 | 0.435 | 0.412 | 0.512 | 0.494 | 0.455 | 0.577 | 0.446 | 0.441 | 0.418 | 0.485
NCI-H1666 | 0.466 | 0.556 | 0.35 | 0.223 | 0.872 | 0.754 | 0.83 | 0.66 | 0.81 | 0.407 | 0.481 | 0.377 | 0.331 | 0.2 | 0.959 | 0.852 | 0.951 | 1.1 | 0.924
201T | – | 1.03 | 0.738 | 0.322 | 1.13 | 0.916 | 0.979 | 1 | 1.02 | 0.71 | 0.544 | 0.737 | 0.662 | 0.67 | 1.26 | 1.19 | 1.21 | 1.16 | 1.2
LK-2 | 0.852 | 1.33 | 0.411 | 0.32 | 0.642 | 0.509 | 0.527 | 0.317 | 0.508 | 0.596 | 0.809 | 0.686 | – | 0.532 | 0.907 | 0.853 | 0.807 | 0.924 | 0.772
